Results taken from the supplement of paper PMC10307832.

What was measured:
Assay in all cases: relative viability (nuclei count vs DMSO), 5 days (fraction); higher = more cells survive
[1] = compound: CC(C)C[C@H](NC(=O)[C@H](Cc1ccccc1)NC(=O)c1cnccn1)B(O)O [Bortezomib] + CC1(C)CCC(c2ccc(Cl)cc2)=C(CN2CCN(c3ccc(C(=O)NS(=O)(=O)c4ccc(N[C@H](CCN5CCOCC5)CSc5ccccc5)c(S(=O)(=O)C(F)(F)F)c4)cc3)CC2)C1 [Navitoclax] (partner 0.5 µM)
In short: (§1)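 Lung cancer cell lines in 1536-well plates got either a single drug or a fixed anchor-drug dose together with five library-drug doses (not always all listed) in √10 steps, by pin tool, on the day after seeding. Nuclei were counted after 5 days, and relative viability is the treated-to-vehicle ratio of nuclei counts. Values are medians of duplicate plates.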

[2] = compound: CC(C)C[C@H](NC(=O)[C@H](Cc1ccccc1)NC(=O)c1cnccn1)B(O)O [Bortezomib] + Nc1nc2[nH]cc(CCc3ccc(C(=O)N[C@@H](CCC(=O)O)C(=O)O)cc3)c2c(=O)[nH]1 [Pemetrexed] (partner 0.2 µM)
In short: as §1

[3] = compound: CC1=CC(=NN1)NC2=CC(=NC(=N2)/C=C/C3=CC=CC=C3)N4CCN(CC4)C + CC(C)C[C@H](NC(=O)[C@H](Cc1ccccc1)NC(=O)c1cnccn1)B(O)O [Bortezomib] (partner 0.002 µM)
In short: as §1

[4] = compound: CC1=CC(=NN1)NC2=CC(=NC(=N2)/C=C/C3=CC=CC=C3)N4CCN(CC4)C + N=C(N)NC(=N)NCCc1ccccc1 [Phenformin] (partner 250 µM)
In short: as §1

Cell Line | relative viability ([1]; first compound 0.0002 µM) | relative viability ([1]; first compound 0.002 µM) | relative viability ([1]; first compound 0.006325 µM) | relative viability ([1]; first compound 0.02 µM) | relative viability ([2]; first compound 0.0002 µM) | relative viability ([2]; first compound 0.000632 µM) | relative viability ([2]; first compound 0.002 µM) | relative viability ([2]; first compound 0.006325 µM) | relative viability ([2]; first compound 0.02 µM) | relative viability ([3]; first compound 0.08 µM) | relative viability ([3]; first compound 0.253 µM) | relative viability ([3]; first compound 0.8 µM) | relative viability ([3]; first compound 2.53 µM) | relative viability ([3]; first compound 8 µM) | relative viability ([4]; first compound 0.08 µM) | relative viability ([4]; first compound 0.253 µM) | relative viability ([4]; first compound 0.8 µM) | relative viability ([4]; first compound 2.53 µM) | relative viability ([4]; first compound 8 µM) | relative viability ([1]; first compound 0.000632 µM)
LC-2-ad | 0.422 | 0.543 | 0.0995 | 0.0978 | 0.255 | 0.271 | 0.255 | 0.252 | 0.185 | 0.938 | 1.03 | 0.602 | 0.289 | 0.0902 | 0.554 | 0.571 | 0.501 | 0.251 | 0.172 | –
LCLC-97TM1 | 0.586 | 0.186 | 0.222 | 0.0968 | 0.189 | 0.17 | 0.16 | 0.166 | 0.0769 | 0.742 | 0.57 | 0.77 | 0.114 | 0.0579 | 0.448 | 0.468 | 0.41 | 0.236 | 0.154 | 0.451
LOU-NH91 | 0.697 | 0.254 | 0.187 | 0.201 | 0.396 | 0.446 | 0.361 | 0.281 | 0.284 | 0.403 | 0.472 | 0.537 | 0.474 | 0.358 | 0.7 | 0.768 | 0.78 | 0.509 | 0.365 | 0.543
LU99A | 0.824 | 0.945 | 0.384 | 0.132 | 0.158 | 0.167 | 0.198 | 0.174 | 0.169 | 1.13 | 0.993 | 0.779 | 0.25 | 0.127 | 0.748 | 0.707 | 0.716 | 0.411 | 0.153 | –
LXF-289 | 0.936 | 0.955 | 0.0537 | 0.0449 | 0.884 | 0.884 | 0.962 | 0.442 | 0.0884 | 0.992 | 0.98 | 0.917 | 0.656 | 0.115 | 0.478 | 0.464 | 0.496 | 0.265 | 0.114 | 0.942
NCI-H23 | – | 0.834 | 0.212 | 0.126 | 0.556 | – | 0.595 | 0.23 | 0.143 | 0.909 | 0.949 | 0.826 | 0.196 | 0.139 | 0.793 | 0.887 | 0.711 | 0.247 | 0.204 | 0.495
NCI-H322M | 1.34 | 1.18 | 1.24 | 1.09 | 0.642 | 0.403 | 0.617 | 0.4 | 0.335 | 1.14 | 1.24 | 1.17 | 1.1 | 0.258 | 0.759 | 0.852 | 0.688 | 0.31 | 0.218 | –
NCI-H441 | 0.4 | 0.31 | 0.17 | 0.143 | 0.248 | 0.244 | 0.253 | 0.104 | 0.118 | 0.543 | 0.547 | 0.332 | 0.265 | 0.192 | 0.909 | 0.955 | 0.797 | 0.192 | 0.156 | 0.612
NCI-H460 | 1.08 | 1.34 | 0.0699 | 0.0164 | 0.0729 | 0.0627 | 0.0658 | 0.0625 | 0.0303 | 1.07 | 1.1 | 1 | 0.0197 | 0.0105 | 0.552 | 0.597 | 0.514 | 0.0212 | 0.0183 | 1.15
NCI-H520 | 1 | 0.347 | 0.145 | 0.157 | 0.511 | 0.785 | 0.3 | 0.17 | 0.139 | 0.487 | 0.599 | 0.395 | 0.154 | 0.11 | 0.655 | 0.62 | 0.603 | 0.23 | 0.172 | 0.959
NCI-H596 | 0.921 | 0.925 | 0.123 | 0.131 | 0.487 | 0.488 | 0.45 | 0.268 | 0.221 | 1.2 | 1.01 | 0.756 | 0.616 | 0.268 | 0.767 | 0.807 | 0.627 | 0.608 | 0.259 | 0.817
NCI-H647 | 0.997 | 0.619 | 0.0302 | 0.0207 | 0.17 | 0.199 | 0.134 | 0.0326 | 0.0194 | 0.807 | 1.1 | 0.957 | 0.068 | 0.0571 | 0.481 | 0.634 | 0.47 | 0.0675 | 0.0451 | 1.1
NCI-H838 | 1.21 | 1.17 | 0.171 | 0.161 | 0.252 | 0.231 | 0.264 | 0.161 | 0.161 | 0.759 | 0.802 | 0.705 | 0.168 | 0.0832 | 0.567 | 0.583 | 0.462 | 0.123 | 0.107 | 1.21
NCI-H1355 | 0.85 | 0.737 | 0.604 | 0.139 | 1.02 | 0.97 | 1.06 | 0.711 | 0.13 | 1.16 | 1.17 | 1.16 | 0.885 | 0.168 | 0.484 | 0.423 | 0.435 | 0.26 | 0.148 | 0.95
NCI-H1437 | 1.08 | 1.1 | 0.118 | 0.123 | 0.284 | 0.301 | 0.351 | 0.172 | 0.157 | 0.621 | 0.554 | 0.656 | 0.247 | 0.0909 | 0.3 | 0.331 | 0.307 | 0.16 | 0.107 | 1.09
NCI-H1650 | 1.17 | 0.191 | 0.119 | 0.106 | 0.403 | 0.335 | 0.141 | 0.13 | 0.186 | 0.209 | 0.191 | 0.182 | 0.183 | 0.19 | 0.418 | 0.404 | 0.464 | 0.106 | 0.0916 | 1.17
